The numbers were not newly measured in patent publication US5750504A, “Antimicrobial proteins” (Zeneca Agrochemicals, priority 1996, dated 1998), which cites them from elsewhere.

For one data set, the system named is fungi. Particulars: Rs-AFP-type proteins of WO93/05153; cited from earlier work.
The test system of data set [1] is hyphae of Fusarium culmorum. Particulars: Terras FRG et al, 1992; cited from earlier work.

Where no end group is shown, it is not given here.

For “Cb-AMP1: antimicrobial protein capable of isolation from Cnicus benedictus, SEQ ID NO 6 (ELCEKASKTWSGNCGNTKHCDDQCKSWEGAAHGACHVRNGKHMCFCYFNC; ends and bridges not checked; cysteine pairing not given here)”, the hyperbranching of fungi result with fungi is given as “do not”.

Consider “Dm-AMP1: antimicrobial protein capable of isolation from Dahlia merckii, SEQ ID NO 5 (ELCEKASKTWSGNCGNTGHCDNQCKSWEGAAHGACHVRNGKHMCFCYFNC; ends and bridges not checked; cysteine pairing not given here)”, for which the hyperbranching of fungi entry in the data set on fungi is “do not”.

With “Rs-AFP1: antifungal protein from Raphanus sativus seeds, SEQ ID NO 3 (ZKLCERPSGTWSGVCGNNNACKNQCINLEKARHGSCNYVFPAHKCICYFPC)”, the “hyper-branching of hyphae of Fusarium culmorum” value in data set [1] was “A similar effect”. Also, the hyperbranching of fungi entry with fungi was “cause hyperbranching”.

Turning to “Rs-AFP2: antifungal protein from Raphanus sativus seeds, SEQ ID NO 4 (ZKLCQRPSGTWSGVCGNNNACKNQCIRLEKARHGSCNYVFPAHKCICYFPC)”, the “hyper-branching of hyphae of Fusarium culmorum” value in data set [1] is recorded as “A similar effect”. In addition, the hyperbranching of fungi entry in the data set with fungi is “cause hyperbranching”.
